Key:
UHRF1-TTD = biological target: T1, UHRF1-TTD (Homo sapiens, UniProt Q96T88); assay: Thermal shift assay (TSA) of TTD; assay type: binding; settings: for TSA (ΔTm) at 500 μM / ΔTm at 500 µM: compound at 500 μM, untagged TTD, 150 mM NaCl, mean ± S.D., n=3; for ΔTm at 200 µM: fragment screen, His6-TTD, final compound concentration 200 µM, 300 mM NaCl, read-out: ThermoFluor (ΔTm), fragment screen
T1 construct: Using the isolated His6-TTD (aa 123–283) we performed a thermal shift assay; His6 (N, cleaved yes); made in house; host or cells: Rosetta (DE3) E. coli, pMCSG7
T1 sequence (Q96T88 123-283): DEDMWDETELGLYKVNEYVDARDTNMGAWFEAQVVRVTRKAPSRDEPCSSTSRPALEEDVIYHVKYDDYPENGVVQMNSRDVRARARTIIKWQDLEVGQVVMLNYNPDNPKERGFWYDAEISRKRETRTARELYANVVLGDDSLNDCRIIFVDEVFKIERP
Description: We used three different assays in parallel to screen a ~ 2300-fragment library to identify hits that bind to TTD or inhibit its activities. The first screening method was a direct binding assay, which generally serves as the basis for most fragment screening. Using the isolated His6-TTD (aa 123–283) we performed a thermal shift assay (TSA) to determine the change in melting temperature upon fragment binding. The change in protein melting temperature (ΔTm) caused by each fragment was calculated by comparison to the DMSO controls on the same plate.
The fragment screen was carried out on LightCycler 480 Multiwell Plates 384 (Roche). The TSA mix contains 0.15 mg/ml of His6-TTD, 10 × of SYPRO Orange dye (ThermoFisher) in the TSA buffer (50 mM sodium phosphate, pH = 7, 300 mM NaCl). During the screen, 5 µl of TSA mix was dispensed into each well, and 100 nl of chemical fragments stock (10 mM in DMSO) was added to each well by pintool using Tecan Freedom Evo liquid handler to make the final compound concentration 200 µM. After 1 h of incubation at room temperature, the increase of fluorescence at 580 nm (excitation 465 nm) during the 20–90 degree melting (0.04 °C/s) was measured by LightCycler 480 Instrument II (Roche). For the fragment screen, on seven of the library plates there were 32-wells of DMSO control, while there were 8-wells of DMSO control in the last plate. […] Using un-tagged TTD for TSA provide closer resemblance to the native state of TTD. The lower salt concentration (150 mM NaCl) also allowed better comparison across three different assays during the dose-dependent SAR studies as both AlphaScreen and TR-FRET assay also use buffers containing 150 mM NaCl.

N-UHRF1 vs. C-UHRF1 = biological target: T2, N-UHRF1 vs. C-UHRF1 (Homo sapiens, UniProt Q96T88); assay: AlphaScreen assay: N-UHRF1 interaction with C-UHRF1 (TTD:PBR); assay type: biochemical; settings: for EC50 / AlphaScreen (N-UHRF1 vs. C-UHRF1) EC50: EC50 ± S.E.M., n=3, highest concentration tested 1 mM; for inhibition of N-UHRF1:C-UHRF1 interaction by peptide (in words): peptide (1-20) at 50 µM (Fig. S1)
T2 construct: biotinylated-AviTag-N-UHRF1 (containing UBL and TTD, aa 1–285); made in house; host or cells: Rosetta (DE3) E. coli; pMCSG51 (N-UHRF1), pMCSG7 (FLAG-C-UHRF1)
T2 sequence (Q96T88 1-285): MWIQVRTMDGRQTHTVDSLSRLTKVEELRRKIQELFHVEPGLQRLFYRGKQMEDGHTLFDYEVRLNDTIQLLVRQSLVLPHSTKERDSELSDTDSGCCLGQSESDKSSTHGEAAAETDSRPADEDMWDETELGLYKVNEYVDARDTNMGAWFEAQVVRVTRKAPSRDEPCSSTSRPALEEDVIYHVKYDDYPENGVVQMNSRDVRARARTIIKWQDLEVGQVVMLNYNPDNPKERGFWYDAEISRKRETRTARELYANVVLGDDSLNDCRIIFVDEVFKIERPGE
Text: We next turned our attention to screens that reported on functional effects of fragment binding to UHRF1-TTD. UHRF1 can assume two functionally distinct conformations that are favored by different intra-molecular interactions[15],[32]–[35]. UHRF1 assumes a ‘closed’ conformation with diminished E3 ligase activity when the TTD domain interacts with the internal PBR[32]–[35]. To identify compounds that block this internal TTD:PBR interaction, we developed an assay using AlphaScreen (Amplified Luminescent Proximity Homogeneous Assay, Perkin Elmer) technology that detects the interaction between biotinylated-AviTag-N-UHRF1 (containing UBL and TTD, aa 1–285) and FLAG-C-UHRF1 (containing SRA, RING E3 domains and PBR, aa 414–793) (Fig. 1A,C). […] The signal change in each well was calculated relative to DMSO controls on each plate.
The fragment screen was carried out on low volume 384-well white plates (Corning 4512) and the assay was performed at room temperature. First, 5 µl of AlphaScreen buffer (50 mM HEPES, pH = 6.5, 150 mM NaCl, 0.1% Triton X-100, 1 mM DTT) was dispensed by multidrop combi microplate dispenser (Thermo Scientific) and 300 nl of chemical fragment stock (10 mM in DMSO) was added to each well by pintool using Tecan Freedom Evo liquid handler. Next, 3 µl of AlphaScreen reagent mix containing 768 nM of Biotinylated-His-Avitag-N-UHRF1, 768 nM of FLAG-C-UHRF1, 40 µg/ml streptavidin donor beads, and 40 µg/ml Anti-FLAG conjugated acceptor beads (PerkinElmer) was added to each well by multidrop. The final concentration of FLAG-C-UHRF1 was 300 nM, Biotinylated-His-Avitag-N-UHRF1 was 300 nM, Donor/acceptor beads each was 15 µg/ml. In this assay, the biotinylated-AviTag-N-UHRF1 binds to streptavidin-coated donor beads while the FLAG-C-UHRF1 interacts with the anti-FLAG antibody-coated acceptor beads. The final compound concentration was 360 µM. After 1 h of incubation, the AlphaScreen signal of each plate was measured with a Tecan Infinite M1000 plate reader, which uses a high-power laser (680 nm, 750 mW) as the excitation light source for the donor beads and the AlphaScreen filter was used to detect the emission between 520 and 620 nm from the acceptor beads. For the dose-dependent assays for SAR, the final concentrations of N-UHRF1, C-UHRF1, donor, and acceptor beads were the same as fragment screen. The only differences were that the phosphate buffer was used (50 mM sodium phosphate, pH = 7, 150 mM NaCl, 1 mM DTT, and 0.1% Triton-X-100) and the final volume was 10 µL. For the fragment screen, on seven of the library plates there were 32-wells of DMSO control, while there were 8-wells of DMSO control in the last plate.

[1] = biological target: T3, His6-TTD (UHRF1 tandem Tudor domain) vs. H3K9me3 peptide (Homo sapiens, UniProt Q96T88); assay: TR-FRET assay: His6-TTD interaction with H3K9me3 peptide; assay type: biochemical; settings: EC50 ± S.E.M., n=3; highest concentration tested 1 mM
T3 construct: Using the isolated His6-TTD (aa 123–283) we performed a thermal shift assay; made in house; host or cells: Rosetta (DE3) E. coli, pMCSG7
T3 sequence (Q96T88 123-283): T1 sequence (Q96T88 123-283)
Description: Finally, the fragment library was screened using a TR-FRET assay to find inhibitors that block the interaction of His6-TTD with H3K9me3 peptide. In this assay, an anti-His6-antibody labeled with Tb cryptate binds to His6-TTD while a streptavidin-d2 acceptor binds to a biotinylated histone H3K9me3 peptide. The binding between His6-TTD and H3K9me3 peptide was measured by the ratio of 665 nm fluorescence (from the d2 acceptor) to 620 nm fluorescence (from the Tb cryptate donor) (Fig. 1D).
The fragment screen was carried out on low volume 384-well white plates (Corning 4512) and the assay was performed at room temperature. […] After 1 h of incubation, the fluorescent signals at 665 nm and 620 nm of each plate were measured by the Tecan Infinite M1000 plate reader (excitation 340 nm, 60 µs lag time, and 500 µs integration time) and the TR-FRET signal was calculated by the ratio of 665 nm/620 nm fluorescent signal. For the fragment screen, on seven of the library plates there were 32-wells of DMSO control, while there were 8-wells of DMSO control in the last plate. […] The only difference was that the final concentration of His6-TTD-PHD was 200 nM, biotin-H3K9me3 peptide was 200 nM for the His6-TTD-PHD TR-FRET assay, while the final concentration of His6-UHRF1-FL was 200 nM and biotin-H3K9me3 peptide was 100 nM for the His6-UHRF1-FL TR-FRET assay. The buffer pH was 7.5 for the His6-TTD-PHD and His6-UHRF1-FL assays.

UHRF1-SRA domain = biological target: T4, UHRF1-SRA domain (Homo sapiens, UniProt Q96T88); assay: TSA against UHRF1-SRA domain; assay type: binding; settings: fragment screen
T4 construct: unrelated protein targets (USP7-UBL1/2, UHRF1-SRA domain, and DNMT1-RFTS domain)
T4 sequence (Q96T88 419-582 limits assumed): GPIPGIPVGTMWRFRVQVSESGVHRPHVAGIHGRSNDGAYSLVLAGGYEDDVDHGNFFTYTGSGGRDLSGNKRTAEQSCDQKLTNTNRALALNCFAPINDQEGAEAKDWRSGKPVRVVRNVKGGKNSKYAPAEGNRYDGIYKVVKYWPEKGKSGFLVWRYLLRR
Text: (§1) F1957-0227 was identified as a hit in two other AlphaScreen assays (N-UHRF1 vs. USP7-UBL1/2 and UHRF1-SRA domain vs. DNMT1-RFTS domain) and in three TSAs against unrelated protein targets (USP7-UBL1/2, UHRF1-SRA domain, and DNMT1-RFTS domain); we concluded that F1957-0227 behaves as a pan-assay interference compound (PAINS)[53] and is thus not suitable for follow-up.

DNMT1-RFTS domain = biological target: T5, DNMT1-RFTS domain (Homo sapiens, UniProt P26358); assay: TSA against DNMT1-RFTS domain; assay type: binding; settings: fragment screen
T5 construct: unrelated protein targets (USP7-UBL1/2, UHRF1-SRA domain, and DNMT1-RFTS domain)
T5 sequence (P26358 400-533 limits assumed): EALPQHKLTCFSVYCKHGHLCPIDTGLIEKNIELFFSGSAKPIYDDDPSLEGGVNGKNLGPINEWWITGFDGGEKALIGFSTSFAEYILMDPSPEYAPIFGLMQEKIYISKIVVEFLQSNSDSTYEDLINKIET
Text: as §1

N-UHRF1 vs. USP7-UBL1/2 = assay: AlphaScreen assay N-UHRF1 vs. USP7-UBL1/2 (other screen); assay type: biochemical; settings: fragment screen
Text: as §1

[2] = biological target: T6, UHRF1-SRA domain vs. DNMT1-RFTS domain (Homo sapiens, UniProt P26358+Q96T88); assay: AlphaScreen assay UHRF1-SRA domain vs. DNMT1-RFTS domain (other screen); assay type: biochemical; settings: fragment screen
T6 construct: UHRF1-SRA domain vs. DNMT1-RFTS domain
T6 sequence (P26358 400-533 limits assumed, one chain of several): as the sequence (P26358 400-533 limits assumed) above
Text: as §1

USP7-UBL1/2 = USP7-UBL1/2 (Homo sapiens, UniProt Q93009); assay: TSA against USP7-UBL1/2; assay type: binding; settings: fragment screen
Chain of USP7-UBL1/2 (Q93009 560-776 limits assumed): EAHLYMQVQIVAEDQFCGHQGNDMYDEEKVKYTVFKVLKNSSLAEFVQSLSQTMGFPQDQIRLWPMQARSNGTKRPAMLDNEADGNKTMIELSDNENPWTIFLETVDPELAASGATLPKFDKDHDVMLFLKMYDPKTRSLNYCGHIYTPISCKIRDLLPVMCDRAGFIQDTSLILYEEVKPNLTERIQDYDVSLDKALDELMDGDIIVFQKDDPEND
Text: as §1

| Compound | TSA (ΔTm) at 500 μM (UHRF1-TTD) | EC50 (N-UHRF1 vs. C-UHRF1) | EC50 [1] | other results |
| --- | --- | --- | --- | --- |
| c1cnc2c(c1)CCCN2 [Compound 2] | 0.75 ± 0.02 °C | 164 ± 33 µM | 109 ± 18.2 µM | – |
| Cc1c(Br)cnc2c1CCCN2 [Compound 3] | 0.1 ± 0.06 °C | 75.7 ± 14.4 µM | 58.5 ± 8.4 µM | – |
| c1cnc2c(c1)CCCC2 [Compound 6, 5,6,7,8-tetra-hydro-quinoline] | – | – | > 500 µM | ΔTm at 500 µM (UHRF1-TTD): 0.21 ± 0.06 °C; AlphaScreen (N-UHRF1 vs. C-UHRF1) EC50 (N-UHRF1 vs. C-UHRF1): 281.7 ± 227.7 µM |
| c1cnc2c(c1)NCCN2 [Compound 7, 1,2,3,4-tetrahydropyrido[2,3-b]pyrazine] | – | – | > 500 µM | ΔTm at 500 µM (UHRF1-TTD): 0.19 ± 0.06 °C; AlphaScreen (N-UHRF1 vs. C-UHRF1) EC50 (N-UHRF1 vs. C-UHRF1): 379.8 ± 176.0 µM |
| Cc1ccnc(N)c1 [Compound 8] | 0.66 ± 0.09 °C | 52.6 ± 6.9 µM | 238 ± 89.1 µM | – |
| Cc1ccnc(Cl)c1 [Compound 9] | – | – | – | AlphaScreen (N-UHRF1 vs. C-UHRF1) EC50 (N-UHRF1 vs. C-UHRF1): No inhibition; TR-FRET (TTD vs. H3K9me3) EC50 [1]: No inhibition |
| Cc1cc(C)nc(N)c1 [Compound 12] | 1.59 ± 0.06 °C | 21.3 ± 3.5 µM | 51.9 ± 8.1 µM | – |
| Cc1cc(C)nc(C)c1 [Compound 15] | 1.11 ± 0.06 °C | > 500 µM | 47.2 ± 4.9 µM | – |
| Cc1cc(C)c2c(n1)NCCC2 [Compound F1957-0088] | – | – | – | ΔTm at 500 µM (UHRF1-TTD): 1.52 ± 0.09 °C; ΔTm at 200 µM (UHRF1-TTD): 1.74 °C |
| Nc1ncc(Br)c2cc[nH]c12 [Compound F1957-0227] | – | – | – | hit call in TSA against UHRF1-SRA domain (UHRF1-SRA domain): hit; hit call in TSA against DNMT1-RFTS domain (DNMT1-RFTS domain): hit; ΔTm at 200 µM (UHRF1-TTD): 2.58 °C; hit call in AlphaScreen N-UHRF1 vs. USP7-UBL1/2 (N-UHRF1 vs. USP7-UBL1/2): hit; hit call in AlphaScreen UHRF1-SRA domain vs. DNMT1-RFTS domain [2]: hit; hit call in TSA against USP7-UBL1/2 (USP7-UBL1/2): hit |
| H3K4me3 peptide: histone H3 (1-20) peptide trimethylated at Lys4, negative control [reference compound] | – | – | – | inhibition of N-UHRF1:C-UHRF1 interaction by peptide (in words) (N-UHRF1 vs. C-UHRF1): not |
| H3K9me3 peptide: histone H3 (1–20) peptide trimethylated at Lys9, TTD ligand [reference compound] | – | – | – | inhibition of N-UHRF1:C-UHRF1 interaction by peptide (in words) (N-UHRF1 vs. C-UHRF1): could inhibit |

Source: paper PMC7806715, “Discovery of small molecules targeting the tandem tudor domain of the epigenetic factor UHRF1 using fragment-based ligand discovery” (Scientific Reports, 2021)
